Laboratory results published in patent publication US20220257774A1, “AROMATIC AMINE AR AHD BET TARGETING PROTEIN DEGRADATION CHIMERA COMPOUND AND USE” (HINOVA PHARMACEUTICALS INC., priority 2019, published 2022).
Read-outs that look alike come from different tables or passages of the source.

Legend:
Format in all cases: cell-based
Androgen receptor (AR) = assay: Down-regulation/degradation of AR determined by Western blot in CWR22RV1 cells; details: concentration 100 nM, 24 h
Experimental: (§1) The Down-Regulation on the Protein Expression of Androgen Receptors AR and Brd4 Determined by Western Blot CWR22RV1 cells (National Collection of Authenticated Cell Cultures. TCHu100) FBS (Gibco, Cat. No. 10099-141) 0.01M PBS (Biosharp. Cat. No. 162262) RIPM1640 (Hyclone, Cat. No. 308090.01) Penicillin-Streptomycin (Hyclone. Cat. No. SV30010) DMSO (Sigma. Cat. No. D5879) Centrifuge tube, 15 ml (Excell Bio. Cat. No. CS015-0001) Cell culture plate (Excell Bio. Cat. No. CS016-0128) 6-well cell culture cluster (Corning, Cat. No. 3516) RIPA lysate buffer (Beyotime, Cat. No. P0013B) Protein loading buffer (Beyotime, Cat. No. P0015L) CA protein assay kit (Beyotime, Cat. No. P0012) SDS-PAGE gel preparation kit (Chengdu Baihe Technology Co., Ltd. Cat. No. PG112) Anti-β-tubulin mouse mAb (Zen Bioscience, Cat. No. 200608) Androgen Receptor ([…]) XP Rabbit mAb (CST. Cat. No. 5153) Anti-cMyc(D3N8F) Rabbit mAb (CST. Cat. No. 13987) Anti-BRD4(E2A7X) rabbit mAb (CST, Cat. No. 13440) Peroxidase Affinipure(HRP) Goat Anti-Mouse IgG (Zen Bioscience, Cat. No. 511103) Peroxidase Affinipure(HRP) Goat Anti-Rabbit IgG (Zen Bioscience, Cat. No. 511203) TBST (Biosharp. Cat. No. B[…]) ECL chemiluminescence kit (Beyotime, Cat. No. […]1 cells were subcultured in cell culture media, and then the cells in good growth condition were seeded in a 6-well plate at 2 ml/well (1×10^6 cells/well), and cultured overnight in a 37° C., 5% CO2 cell incubator. 2) The drug was prepared as a 10 mM stock solution with dimethyl sulfoxide (DMSO). […] The plate was gently tapped to thoroughly mix. In addition, the experiment included negative control wells (containing equal amount of DMSO) and positive control wells. 3) After culturing 24 hi, the cells were lysed with RIPA cell lysate, and the protein was extracted. […] The first antibody (Androgen Receptor ([…]) XP Rabbit mAb. Anti-cMyc(D3N8F) Rabbit mAb, Anti-BRD4(E2A7X) rabbit mAb and Anti-β-Tubulin Mouse mAb) was added and incubated overnight at 4° C. The membrane was rinsed with TBST solution three times, 10 min for each time. The secondary antibody (horseradish peroxidase labeled goat anti mouse IgG) was added and incubated at room temperature for 2 h, and then the membrane was washed with TBST solution three times, 10 m for each time. Finally. ECL chemiluminescence solution was added, and then photos were taken with automatic chemiluminescence instrument to collect pictures for analysis.

LNCaP/AR cells = assay: Inhibition of the proliferation of LNCap/AR cells (CCK-8); details: LNCaP/AR cells, 6 days culture, CCK-8, read-out: LNCap/AR IC50
Summary of the method: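 Proliferation was read by CCK-8 (OD 450 nm, 1 h) after six days of compound exposure. Cells were seeded at 1000 per well overnight, then dosed in duplicate over nine 3-fold steps with a top final concentration of 10 μM in 0.1% DMSO; IC50 was fitted from inhibition curves.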

BRD4 = target: T1, BRD4 (Homo sapiens, UniProt O60885); assay: Down-regulation/degradation of BRD4 determined by Western blot in CWR22RV1 cells; details: concentration 100 nM, 24 h
T1 construct: CWR22RV1 cells were subcultured in cell culture media; endogenous in cells; host or cells: CWR22RV1 cells
Experimental: as §1

22RV1 cells = assay: Inhibition of the proliferation of drug-resistant prostate cancer cell 22RV1 (CCK-8); details: 22RV1 cells (enzalutamide-resistant), same method
Summary of the method: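 22RV1 cells, 1000/well in RPMI1640 with 10% FBS, treated in duplicate with 9-point 3-fold dilutions from 10 μM (0.1% DMSO final). After 6 days at 37 °C, CCK-8 added for 1 h and OD450 read. IC50 from dose-response inhibition fit.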

SMILES | AR (% degradation) (Androgen receptor (AR)) | IC50 (LNCaP/AR cells; 144 h) | BRD4 (% degradation) (BRD4) | IC50 (22RV1 cells; Homo sapiens) | IC50 (LNCaP/AR cells) | IC50 (22RV1 cells)
Cc1ccc(-c2c(C)noc2C)cc1N(CCC1CN(c2cc3c(cc2F)C(=O)N(C2CCC(=O)NC2=O)C3=O)C1)c1ccc(C2(C#N)CC2)cc1 (stereo not shown) [Compound 129, 1-(4-((5-(3,5-Dimethylisoxazol-4-yl)-2-methylphenyl)(2-(1-(2-(2,6-dioxopiperidin-3-yl)-6-fluoro-1,3-dioxoisoindolin-5-yl)azetidin-3-yl)ethyl)amino)phenyl)cyclopropane-1-carbonitrile] | C (49%-20% of the target protein was degraded) | 101 to 500 nM | B (79%-50% of the target protein was degraded) | < 100 nM |  | 
Cc1ccc(-c2c(C)noc2C)cc1N(CCCOC1CN(c2cc3c(cc2F)CN(C2CCC(=O)NC2=O)C3=O)C1)c1ccc(C2(C#N)CC2)cc1 (stereo not shown) [Compound 123, 1-(4-((5-(3,5-dimethylisoxazol-4-yl)-2-methylphenyl)(3-((1-(2-(2,6-dioxopiperidin-3-yl)-6-fluoro-3-oxoisoindolin-5-yl)azetidin-3-yl)oxy)propyl)amino)phenyl)cyclopropane-1-nitrile] | D (<20% of the target protein was degraded) | 501 to 2000 nM | C (49%-20% of the target protein was degraded) | 501 to 2000 nM |  | 
Cc1ccc(-c2c(C)noc2C)cc1N(CC1CC(Nc2cc3c(cc2F)C(=O)N(C2CCC(=O)NC2=O)C3)C1)c1ccc(C2(C#N)CC2)cc1 (stereo not shown) [Compound 39] | C (49%-20% of the target protein was degraded) | 501 to 2000 nM | C (49%-20% of the target protein was degraded) | < 100 nM |  | 
Cc1ccc(-c2c(C)noc2C)cc1N(CCCCNc1cc2c(cc1F)C(=O)N(C1CCC(=O)NC1=O)C2)c1ccc(C2(C#N)CC2)cc1 (stereo not shown) [Compound 43, 1-(4-((5-(3,5-Dimethylisoxazol-4-yl)-2-methylphenyl)(4-((2-(2,6-dioxopiperidin-3-yl)-6-fluoro-1-oxoisoindolin-5-yl)amino)butyl)amino)phenyl)cyclopropane-1-nitrile] | B (79%-50% of the target protein was degraded) | 501 to 2000 nM | C (49%-20% of the target protein was degraded) | < 100 nM |  | 
Cc1ccc(-c2c(C)noc2C)cc1N(CC(C)OC1CN(c2cc3c(cc2F)C(=O)N(C2CCC(=O)NC2=O)C3)C1)c1ccc(C2(C#N)CC2)cc1 (stereo not shown) [Compound 178, 1-(4-((5-(3,5-dimethylisoxazol-4-yl)-2-methylphenyl)(2-((1-(2-(2,6-dioxopiperidin-3-yl)-6-fluoro-1-oxoisoindolin-5-yl)azetidin-3-yl)oxy)propyl)amino)phenyl)cyclopropane-1-nitrile] | B (79%-50% of the target protein was degraded) | < 100 nM | A (>80% of the target protein was degraded) | < 100 nM |  | 
Cc1ccc(-c2c(C)noc2C)cc1N(C[C@H]1CC[C@H](CNc2cc3c(cc2F)C(=O)N(C2CCC(=O)NC2=O)C3=O)CC1)c1ccc(C#N)c(Cl)c1 (stereo partly shown) [Compound 131] | C (49%-20% of the target protein was degraded) |  | A (>80% of the target protein was degraded) |  | < 100 nM | < 100 nM
Cc1ccc(-c2c(C)noc2C)cc1N(CC(C)OC1CCN(c2ccc3c(c2)C(=O)N(C2CCC(=O)NC2=O)C3=O)CC1)c1ccc(C2(C#N)CC2)cc1 (stereo not shown) [Compound 106] | C (49%-20% of the target protein was degraded) | 501 to 2000 nM | B (79%-50% of the target protein was degraded) | < 100 nM |  | 
Cc1ccc(-c2c(C)noc2C)cc1N(CC1CCN(c2cc3c(cc2F)C(=O)N(C2CCC(=O)NC2=O)C3)CC1)c1ccc(C2(C#N)CC2)cc1 (stereo not shown) [Compound 128, 1-(4-((5-(3,5-dimethylisoxazol-4-yl)-2-methylphenyl)((1-(2-(2,6-dioxopiperidin-3-yl)-6-fluoro-1-oxoisoindolin-5-yl)piperidin-4-yl)methyl)amino)phenyl)cyclopropane-1-nitrile] | D (<20% of the target protein was degraded) | 501 to 2000 nM | C (49%-20% of the target protein was degraded) | 101 to 500 nM |  | 
Cc1ccc(-c2c(C)noc2C)cc1N(CC(C)OC1CN(c2ccc3c(c2)CN(C2CCC(=O)NC2=O)C3=O)C1)c1ccc(C2(C#N)CC2)cc1 (stereo not shown) [Compound 180, 1-(4-((5-(3,5-dimethylisoxazol-4-yl)-2-methylphenyl)(2-((1-(2-(2,6-dioxopiperidin-3-yl)-1-oxoisoindolin-5-yl)azacyclobutane-3-yl)oxy)propyl)amino)phenyl)cyclopropane-1-nitrile] | D (<20% of the target protein was degraded) | < 100 nM | A (>80% of the target protein was degraded) | < 100 nM |  | 
Cc1ccc(-c2c(C)noc2C)cc1N(CCCCCNc1ccc2c(c1)C(=O)N(C1CCC(=O)NC1=O)C2=O)c1ccc(C2(C#N)CC2)cc1 (stereo not shown) [Compound 147, 1-(4-((5-(3,5-Dimethylisoxazol-4-yl)-2-methylphenyl)(5-((2-(2,6-dioxopiperidin-3)-1,3-dicarbonylisoindolin-5))amino)pentyl)amino)phenylcyclopropanecarbonitrile] | C (49%-20% of the target protein was degraded) | < 100 nM | A (>80% of the target protein was degraded) |  |  | 
Cc1ccc(-c2c(C)noc2C)cc1N(CCCCCOCC(=O)N[C@H](C(=O)N1C[C@H](O)C[C@H]1C(=O)N[C@@H](C)c1ccc(-c2scnc2C)cc1)C(C)(C)C)c1ccc(-n2ccnc2)c(Br)c1 [Compound 10, (2S,4R)-1-((S)-2-(2-((5-((3-bromo-4-(1H-imidazol-1-yl)phenyl)(5-(3,5-dimethylisoxazol-4-yl)-2-methylphenyl)amino)n-pentyl)oxy)acetylamino)-3,3-dimethylbutyryl)-4-hydroxy-N—((S)-1-(4-(4-methylthiazol-5-yl)phenyl)ethyl)pyrrolidinyl-2-formamide] | B (79%-50% of the target protein was degraded) | < 100 nM | B (79%-50% of the target protein was degraded) |  |  | 
Cc1ccc(-c2c(C)noc2C)cc1N(CCCCCNc1ccc2c(c1)CN(C1CCC(=O)NC1=O)C2=O)c1ccc(C2(C#N)CC2)cc1 (stereo not shown) [Compound 145, 1-(4-((5-(3,5-dimethylisoxazol-4-yl)-2-methylphenyl)(5-((2-(2,6-dioxopiperidin-3)-1-isoindolinone-5-yl))amino)pentyl)amino)phenylcyclopropanecarbonitrile] | C (49%-20% of the target protein was degraded) | < 100 nM | C (49%-20% of the target protein was degraded) |  |  | 
Cc1ccc(-c2c(C)noc2C)cc1N(CC1CCC(Nc2cc3c(cc2F)C(=O)N(C2CCC(=O)NC2=O)C3=O)CC1)c1ccc(C2(C#N)CC2)cc1 (stereo not shown) [Compound 161, 1-(4-((5-(3,5-dimethylisoxazol-4-yl)-2-methylphenyl)(((1s,4s)-4-((2-(2,6-dioxopiperidin-3-yl)-6-fluoro-1,3-dicarbonylisoindolin-5-yl)amino)cyclohexyl)methyl)amino)phenyl) phenylcyclopropanecarbonitrile] |  | > 2000 nM |  | > 2000 nM |  | 
Cc1ccc(-c2c(C)noc2C)cc1N(c1ccc(C2(C#N)CC2)cc1)C1CN([C@H]2CC[C@H](Nc3cc4c(cc3F)C(=O)N(C3CCC(=O)NC3=O)C4=O)CC2)C1 (stereo partly shown) [Compound 74] |  |  |  |  | > 2000 nM | > 2000 nM
